The text below walks through data of ChEMBL document CHEMBL3425436, “Assessing the oral bioavailability of difluorosialic acid prodrugs, potent viral neuraminidase inhibitors, using a snapshot PK screening assay” (Bioorg Med Chem Lett, 2015).

Data set [1] deals with Mus musculus. The experiment in a line: Total plasma concentration in CD1 mouse assessed as (2R,3R,4R,5R,6R)-5-acetamido-4-amino-2,3-difluoro-6-((1R,2R)-1,2,3-trihydroxypropyl)tetrahydro-2H-pyran-2-carboxylic acid at 30 mg/kg, po measured at 60 mins by reversed-phase UPLC/MS analysis. The data set is classed as ADME, organism-based. Details: dose 30 mg/kg, route oral. As to conditions: in vivo, 1 h.

For data set [2], the system named is Mus musculus. The experiment in a line: Prodrug conversion in CD1 mouse assessed as formation of (2R,3R,4R,5R,6R)-5-acetamido-4-amino-2,3-difluoro-6-((1R,2R)-1,2,3-trihydroxypropyl)tetrahydro-2H-pyran-2-carboxylic acid at 30 mg/kg, po. The class given is ADME, organism-based. Details: dose 30 mg/kg, route oral. The settings on record: in vivo.
The subject of data set [3] is Mus musculus. The experiment in a line: Total plasma concentration in CD1 mouse assessed as (2R,3R,4R,5R,6R)-5-acetamido-4-amino-2,3-difluoro-6-((1R,2R)-1,2,3-trihydroxypropyl)tetrahydro-2H-pyran-2-carboxylic acid at 30 mg/kg, po measured at 20 mins by reversed-phase UPLC/MS analysis. The class given is ADME, organism-based. Set-up: dose 30 mg/kg, route oral. The settings on record: in vivo.

Data set [4] is described as follows: Stability in simulated gastric fluid at 10 uM at pH 1 measured at 15 mins. The data set is classed as ADME. As to conditions: read-out: Stability.
For data set [5], the system named is Mus musculus. The experiment in a line: Oral bioavailability in CD1 mouse assessed as (2R,3R,4R,5R,6R)-5-acetamido-4-amino-2,3-difluoro-6-((1R,2R)-1,2,3-trihydroxypropyl)tetrahydro-2H-pyran-2-carboxylic acid at 30 mg/kg. The class given is ADME, organism-based. The settings on record: in vivo.
Data set [6] relates to Mus musculus. The experiment in a line: AUC in CD1 mouse assessed as (2R,3R,4R,5R,6R)-5-acetamido-4-amino-2,3-difluoro-6-((1R,2R)-1,2,3-trihydroxypropyl)tetrahydro-2H-pyran-2-carboxylic acid at 30 mg/kg, po. The data set is classed as ADME, organism-based, Plasma. Set-up: dose 30 mg/kg, route oral. As to conditions: in vivo.
Data set [7] deals with Mus musculus. The experiment in a line: Tmax in CD1 mouse assessed as (2R,3R,4R,5R,6R)-5-acetamido-4-amino-2,3-difluoro-6-((1R,2R)-1,2,3-trihydroxypropyl)tetrahydro-2H-pyran-2-carboxylic acid at 30 mg/kg, po. The class given is ADME, organism-based. The settings on record: in vivo. Details: dose 30 mg/kg, route oral.
A short description of data set [8]: Metabolic stability in mouse plasma at 10 uM measured at 15 mins. The data set is classed as ADME, cell-free. As to conditions: read-out: Stability.
The nature of data set [9]: Stability in simulated gastric fluid at 10 uM at pH 1 measured at 60 mins. The data set is classed as ADME. As to conditions: read-out: Stability.
The subject of data set [10] is Mus musculus. The experiment in a line: Cmax in CD1 mouse assessed as (2R,3R,4R,5R,6R)-5-acetamido-4-amino-2,3-difluoro-6-((1R,2R)-1,2,3-trihydroxypropyl)tetrahydro-2H-pyran-2-carboxylic acid at 30 mg/kg, po. The data set is classed as ADME, organism-based. Set-up: dose 30 mg/kg, route oral. As to conditions: in vivo.
A short description of data set [11]: Stability in simulated gastric fluid at 10 uM at pH 4 measured at 60 mins. As to conditions: read-out: Stability. The class given is ADME.
The nature of data set [12]: Metabolic stability in mouse plasma at 10 uM measured at 60 mins. The class given is ADME, cell-free. The settings on record: read-out: Stability.
The nature of data set [13]: Stability in simulated gastric fluid at 10 uM at pH 4 measured at 15 mins. As to conditions: read-out: Stability. The class given is ADME.
Data set [14] is described as follows: Total plasma concentration in CD1 mouse at 50 mg/kg, po measured at 20 mins by reversed-phase UPLC/MS analysis. The data set is classed as ADME, organism-based. Set-up: dose 50 mg/kg, route oral.
Data set [15] in a line: Oral bioavailability in CD1 mouse at 30 mg/kg. The class given is ADME, organism-based. As to conditions: in vivo.
Data set [16] deals with Mus musculus. The experiment in a line: AUC in CD1 mouse at 30 mg/kg, po. Set-up: dose 30 mg/kg, route oral. As to conditions: in vivo. The class given is ADME, organism-based, Plasma.
Data set [17] can be described thus: Total plasma concentration in CD1 mouse at 30 mg/kg, po measured at 20 mins by reversed-phase UPLC/MS analysis. The data set is classed as ADME, organism-based. Details: dose 30 mg/kg, route oral.
Data set [18] can be described thus: Total plasma concentration in CD1 mouse at 50 mg/kg, po measured at 60 mins by reversed-phase UPLC/MS analysis. The class given is ADME, organism-based. Details: dose 50 mg/kg, route oral.
Data set [19] relates to Mus musculus. The experiment in a line: AUC in CD1 mouse at 10 mg/kg, iv. The data set is classed as ADME, organism-based, Plasma. Set-up: dose 10 mg/kg, route intravenous. The settings on record: in vivo.
The nature of data set [20]: Cmax in CD1 mouse at 30 mg/kg, po. The data set is classed as ADME, organism-based. Set-up: dose 30 mg/kg, route oral. The settings on record: in vivo.
Data set [21] is described as follows: Half life in CD1 mouse at 30 mg/kg, po. The class given is ADME, organism-based. Set-up: dose 30 mg/kg, route oral. The settings on record: in vivo.
Data set [22] is described as follows: Total plasma concentration in CD1 mouse at 30 mg/kg, po measured at 60 mins by reversed-phase UPLC/MS analysis. The class given is ADME, organism-based. Set-up: dose 30 mg/kg, route oral.
Data set [23] can be described thus: Tmax in CD1 mouse at 30 mg/kg, po. The class given is ADME, organism-based. Set-up: dose 30 mg/kg, route oral. The settings on record: in vivo.

On to `COC(=O)[C@]1(F)O[C@@H]([C@H](O)[C@H]2COC(C)(C)O2)[C@H](NC(C)=O)[C@@H](N)[C@H]1F`, for which the concentration in the data set with Mus musculus [1] came out at 4.86 µM; with Mus musculus [3], 2.57 µM. Further, in the data set with Mus musculus [2], the Drug metabolism entry is “metabolite_detected”.
With `CC(=O)N[C@@H]1[C@@H](N)[C@@H](F)[C@](F)(C(=O)OC(C)C)O[C@H]1[C@H](O)[C@H](O)CO`, the remaining at 0.25 h, 10 µM in data set [4] is 100%; in data set [8], 100%; in data set [13] it was 99%. In the data set on Mus musculus [5], the F worked out at 0.9%. The concentration came out at 13 µM with Mus musculus [1] and 12.2 µM in the data set on Mus musculus [3]. Also, the AUC with Mus musculus [6] was 78 µmol·min. For the same molecule, the Tmax – broadly, the time at which the peak concentration occurs – in the data set on Mus musculus [7] came to 1 h. The figures for the remaining at 1 h, 10 µM in data set [9], in data set [11] and in data set [12] were 98%, 99% and 87%, respectively. In addition, the highest concentration (Cmax) (usually the peak of the concentration-time curve) in the data set on Mus musculus [10] came out at 0.5 µM.
Consider `CC(=O)N[C@@H]1[C@@H](N)[C@@H](F)[C@](F)(C(=O)O)O[C@H]1[C@H](O)[C@H](O)CO`, for which the concentration at 20 min in data set [14] is 4.5 µM; in data set [17], 2.7 µM. Moreover, the bioavailability (as a rule, dose-corrected exposure relative to a reference, in per cent) in data set [15] is 3.1%. Besides, the AUC in the data set with Mus musculus [16] stood at 320 µmol·min; in the data set with Mus musculus [19], 3394 µmol·min. In addition, the concentration at 1 h in data set [18] came out at 8.21 µM; in data set [22], 4.93 µM. Also, the peak level in [20] (Cmax) was 2.8 µM. For the same molecule, the half-life (in general, the time needed for the level to fall by half in the phase considered) in data set [21] stood at 3.27 h. Further, the Tmax in data set [23] was 0.333 h.
Regarding `CCOC(=O)C1=C[C@@H](OC(CC)CC)[C@H](NC(C)=O)[C@@H](N)C1` [OSELTAMIVIR], the bioavailability in data set [15] was 64.5%. For the same molecule, in the data set on Mus musculus [16], the AUC was found to be 1706 µmol·min. The concentration at 20 min in data set [17] is 8.41 µM. Also, the peak level in [20] (Cmax) was 13.5 µM. In [21], this molecule showed a half-life of 1.23 h. The molecule further showed a concentration at 1 h in [22] of 13.3 µM. Further, the Tmax in [23] is 0.5 h.
`COC(=O)[C@]1(F)O[C@@H]([C@H](O)[C@H](O)CO)[C@H](NC(C)=O)[C@@H](N)[C@H]1F`: the results for the remaining at 0.25 h, 10 µM in data set [4], in [8] and in [13] were 100%, 90% and 100%, respectively. Further, the F with Mus musculus [5] amounted to 2.2%. The values for the concentration in the data set with Mus musculus [1] and in the data set on Mus musculus [3] were 5.34 µM and 6.44 µM, respectively. Also, the AUC with Mus musculus [6] is 219 µmol·min. Besides, the Tmax with Mus musculus [7] stood at 1 h. Also, the figures for the remaining at 1 h, 10 µM in data set [9], in [11] and in data set [12] were 75%, 99% and 6%, respectively. For the same molecule, the Cmax in the data set with Mus musculus [10] turned out to be 1.6 µM.
As for `CC(=O)N[C@H]1[C@H]([C@H](O)[C@H](O)CO)OC(C(=O)O)=C[C@@H]1N=C(N)N` [ZANAMIVIR], in [17], the concentration at 20 min stood at 1.31 µM. Moreover, the concentration at 1 h in data set [22] was determined as 1.3 µM.
